From patent US20230135108A1, “C[…] COMPOUNDS AND METHODS OF MAKING SAME” (Canopy Growth Corporation, priority 2020, published 2023)
Where a name gives a salt, the structure may show the parent alone.

Columns and labels:
[1] = Simulated gastric fluid (SGF) assay; type: in vitro ADME; conditions: pH 1.2-1.5, pepsin, 37° C.; for half-life at 10 µM: simulated gastric fluid with pepsin, read-out: half-life in a gastric environment (SGF)
Protocol: In a microcentrifuge tube, 626.5 μL of a solution containing 1.1× assay buffer (37.6 mM NaCI, pH 1.2-1.5) was diluted with 70 μL of a 10× pepsin solution (80,000 U/mL in milliQ water). […] The sample was incubated under the same conditions. At the specified time points, 150 μL aliquots of the sample were transferred to microcentrifuge tubes containing 24 μL of quenching solution (0.5 M NaHCO3). After vortexing for 5 seconds, 348 μL of protein precipitation solution containing an internal standard (25 μM Glyburide, ACN) was added. The tube was vortexed again for 20 seconds and stored in ice. Finally, the tubes were centrifuged at 5,000×g and 4° C. for 15 min. The percentage remaining CBDA or CBDA-arginine salt, respectively, compared to time zero, was quantified in the supernatant by HPLC/LC-MS or LC-MS/MS.

[2] = Solubility in water (HPLC of filtrate); type: physicochemical; conditions: 50 mg in 8 mL deionized water, 0.45 micron filter, FIG. 7
Protocol: In a test tube, 50 mg of the respective cannabinoid salt compound was suspended in 8 mL of deionized water and vortexed. The solution was filtered with a syringe equipped with 0.45 micron filter. HPLC was used to determine the quantity of dissolved cannabinoids.

SMILES	half-life in a gastric environment (SGF) [1]	solubility in water [2]	half-life at 10 µM [1]
CCCCCc1cc2c(c(O)c1C(=O)O)[C@@H]1C=C(C)CC[C@H]1C(C)(C)O2 [THCA, tetrahydrocannabinolic acid]	about 12.2 min	virtually insoluble	
C=C(C)[C@@H]1CCC(C)=C[C@H]1c1c(O)cc(CCCCC)c(C(=O)O)c1O [CBDA, cannabidiolic acid]			~19.7 min
CCCCCc1cc2c(c(O)c1C(=O)O)[C@@H]1C=C(C)CC[C@H]1C(C)(C)O2 [THCA-arginine salt]			~14.4 min
C1CCC(NC2CCCCC2)CC1.CCCCCc1cc2c(c(O)c1C(=O)O)C1C=C(C)CCC1C(C)(C)O2 (centres unmarked) [THCA-DCHA salt]		virtually insoluble	
